Measured values reported in patent US20070184135A1, “Morinda citrifolia-based formulation 5-LOX and 15-LOX” (priority 2003, published 2007).
“And” between values parts separate entries of the source, which are not always exact repeats. Equal entries are not always repeated.

Target: T1, 5-Lipoxygenase (Homo sapiens, UniProt P09917)
T1 construct: Human peripheral blood mononuclear leukocytes (PBML) were isolated through a Ficoll-Paque density gradient; endogenous in cells; host or cells: human peripheral blood mononuclear leukocytes (PBML)
T1 sequence (P09917 1-674): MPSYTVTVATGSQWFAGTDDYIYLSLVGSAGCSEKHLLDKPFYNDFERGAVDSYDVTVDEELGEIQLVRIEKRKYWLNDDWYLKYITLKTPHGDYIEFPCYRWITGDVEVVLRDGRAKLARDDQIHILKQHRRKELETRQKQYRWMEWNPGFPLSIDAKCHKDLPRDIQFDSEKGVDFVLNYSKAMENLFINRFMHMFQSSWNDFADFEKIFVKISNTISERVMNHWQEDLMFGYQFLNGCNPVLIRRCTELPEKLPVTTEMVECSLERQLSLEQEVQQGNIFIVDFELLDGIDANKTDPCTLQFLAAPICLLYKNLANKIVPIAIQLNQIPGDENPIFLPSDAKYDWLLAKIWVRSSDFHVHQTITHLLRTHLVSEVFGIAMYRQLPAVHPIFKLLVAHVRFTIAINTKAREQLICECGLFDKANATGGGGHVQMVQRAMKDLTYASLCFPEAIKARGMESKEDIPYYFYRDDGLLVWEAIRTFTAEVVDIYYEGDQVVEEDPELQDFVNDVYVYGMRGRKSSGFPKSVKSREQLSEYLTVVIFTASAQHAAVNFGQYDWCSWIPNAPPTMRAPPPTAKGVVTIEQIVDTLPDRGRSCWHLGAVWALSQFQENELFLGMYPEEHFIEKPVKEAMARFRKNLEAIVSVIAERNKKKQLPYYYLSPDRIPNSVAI
Experiment: 5-Lipoxygenase inhibition in human PBML stimulated with A 23187, LTB4 measured by EIA
Type: cell-based
Text: Methods employed in this example were adapted from the scientific literature to maximize reliability and reproducibility. […] 110-13 (2000).
In this study, the 5-LOX source was human peripheral blood mononuclear cells (PBMNC) and the substrate was arachidonic acid having a general reaction of: arachidonic acid→5-LOX→5-HPETE→LTB4. Human peripheral blood mononuclear leukocytes (PBML) were isolated through a Ficoll-Paque density gradient. The inhibiting agent was processed Morinda citrifolia puree juice concentrate. Morinda citrifolia was pre-incubated with PBML (5×10^6 cell/ml) in HBSS buffer pH 7.4 at 37° C. for 15 minutes. […] Following neutralization with NaOH and centrifugation, the supernatant LTB4 is measured using an EIA kit.
The supernatant sample was utilized in same assay and protocols as outlined in Example One above, wherein the brown substance obtained was substituted for Morinda citrifolia puree juice.

In the case of `CC(Cc1ccc(O)c(O)c1)C(C)Cc1ccc(O)c(O)c1` (centres unmarked) [NDGA, nordihydroguaretic acid], the Product (0.03 uM) is reported as 3608.3 pg/well and 3403.4 pg/well, the Product (0.1 uM) is reported as 2433.3 pg/well and the Product (0.3 uM) is reported as 1083.1 pg/well and 1106.1 pg/well. The Product (1 uM) was 233.7 pg/well and 217.9 pg/well and the Product (3 uM) was 134.9 pg/well and 94.3 pg/well.
